Measured values as given in patent publication US20190256499A1, “SUBSTITUTED QUINOXALINE DERIVATIVES AS INHIBITORS OF PFKFB” (priority 2016, published 2019).
Converted amounts (≈) assume the structure as drawn.

How the values were obtained:
[1] = Microsomal stability (intrinsic clearance), mouse liver microsomes; assay type: in vitro ADME; design: microsomal CLint: dose or concentration left out as unconfirmed; conditions: mouse, liver microsomes, pH 7.4, mouse liver microsomes
From the text: (§1) A microsomal stability assay is used to measure in vitro clearance (Clint). The assay involves measuring the rate of disappearance of a compound due to its intrinsic attitude to be metabolized (“intrinsic” meaning that the disappearance is not affected by other properties like permeability, binding etc. that play a role when quantifying in vivo clearance). The microsomal stability (intrinsic clearance, Clint) and thus metabolic stability is generally given as μl/min/mg protein. It can be visualized as the volume of solution that 1 mg of microsomes is able to clear of the compound in one minute.
(§2) A Tecan Genesis workstation (RSP 150/8) was used for to perform the microsomal incubations. Analysis was carried out using a Waters ACQUITY UPLC system coupled to an ABSciex API3000 mass spectrometer. Data analysis was performed using Assay Explorer (Symyx).
(§3) Mobile phases: A=0.1% formic acid in water; B=acetonitrile
(§4) Flow rate: 0.750 mL/min; Detection: ESI, MRM; Injection: 10 μL; Column temperature: 50° C.
(§5) Potassium phosphate buffer: 0.05 M potassium phosphate buffer pH 7.4 containing 1 mM MgCl2 NADPH (nicotinamide adenine dinucleotide phosphate): 22.5 mg NADPH-Na4 in 1.8 ml potassium phosphate buffer Acetonitrile: 50 Vol % acetonitrile (1 volume acetonitrile, 1 volume water) DMSO: 20 Vol % DMSO in water Stock solution of 20 mg/ml human or mouse liver microsomes (protein)/ml in phosphate buffer Stock solution of 10 mM compound in 100% DMSO

[2] = Microsomal stability (intrinsic clearance), human liver microsomes; assay type: in vitro ADME; design: microsomal CLint: dose or concentration left out as unconfirmed; conditions: human, liver microsomes, pH 7.4, human liver microsomes
From the text: as §1, §2, §3, §4, §5

Kinetic solubility = assay type: physicochemical; conditions: phosphate buffer, pH 7.4, aqueous buffer, kinetic from dmso stock, phosphate buffer 20 mM pH 7.4, 2% DMSO, room temperature
Protocol: Kinetic solubility of compounds of the present invention were tested according the following procedure.
(a) Buffer Solution Phosphate Buffer 20 mM pH 7.4 is prepared using Sorensen Phosphate Buffer 0.2 M pH 7.4 (EMS) in a 1000 mL volumetric flask (b) 2% DMSO in Phosphate Buffer 20 mM pH 7.4 is prepared by using 1 mL Dimethylsulfoxide (Merck) and 49 ml Sorensen Phosphate Buffer 20 mM pH 7.4 (c) Acetonitrile/Methanole/Eluent A (1:1:2; v/v/v) is prepared by using 50 mL Acetonitrile (Merck), 50 mL Methanol (Merck) and 100 mL Eluent A (d) Eluent A is prepared by using 1 mL Formic Acid (Merck) and 999 mL Ultrapure water (e) Eluent B is prepared by using 1 mL Formic Acid (Merck) and 999 mL Acetonitrile (Merck) (f) Filtration plate: Millipore MultiScreen HTS HV (0.45 μm) 96 Well (Millipore)
98 μL buffer solution (a) is added into a well of a 96 well filtration plate (f). Then 2 μL of 10 mM test compound solution in DMSO (Remp tube) is added. The filtration plate is incubated at room temperature for 120 minutes while agitating at 250 rpm and centrifuged with the PP-Plate (g) as receiver plate below (2500 rpm, 3 min). The 50 μL of filtrate is taken from the receiver plate and mixed with 50 μL of 2% DMSO in buffer pH 7.4 solution (b) (dilution factor=2) in a HPLC Vial (i)+(j).
Standard is prepared by diluting 2 μL of the same 10 mM test compound solution (Remp tube) diluted with 198 μL Acetonitrile/Methanole/Eluent A (1:1:2; v/v/v) (c) to prepare a 100 μM standard solution in a HPLC Vial (i)+(j).
Column temperature: 37° C. Autosampler: room temperature (approx. 25° C.) Gradient programme: […]
Injection volume: 10 μL Wavelength: Suitable wavelength (maximum sensitivity) selected out of wavelength range of 190-400 nm using a DAD detector.
L [μg/mL]=(area sample*concentration standard*dilution factor sample)/(area standard*dilution factor standard)
S [mol/L]=[…] Calculation: […]

[3] = molecular target: T1, Human recombinant His-tagged PFKFB3 (Homo sapiens, UniProt Q16875); test: PFKFB3 IC50 determination assay (modified ADP-Glo in vitro kinase assay); assay type: biochemical; conditions: human recombinant PFKFB3 25 nM, ATP 20 μM, fructose-6-phosphate 2 μM, 2 h, rt; read-out: PFKFB IC50
T1 construct: His; made in house
Protocol: In vitro kinase assay used to determine IC50 values for tested inhibitors is based on a modified ADP-Glo™ system (Promega) and consists of two parts:
1. Kinase reaction—performed in optimized conditions. At this step PFKFB3 phosphorylates its substrate fructose-6-phosphate using ATP as a source of phosphate to produce fructose-2,6-bisphosphate and ADP. Reaction is performed at Km values for ATP and substrate using optimized buffer composition and time of the reaction. Human recombinant His-tagged PFKFB3 (PFKFB3 BATCH II SEC) with confirmed activity is produced and purified in-house. 2. Detection of ADP as a product of the reaction using ADP-Glo™ system. This part is conducted by using the commercially available kit ADP-Glo™ Kinase Assay (Promega, cat. No# V9103) according to manufacturer's instruction, modified by 5× dilutions of assay reagents (both ADP-Glo™ Reagent and Kinase Detection Solution). Reproducibility and reliability of this modification is confirmed in an optimization process.
Test compounds are dissolved in DMSO and then transferred to the V-bottom 96-well plate. For IC50 determination ten 10× serial dilutions starting from 100 μM are prepared.
Two mixes are prepared on ice: Mix 1—containing appropriate kinase amount in 2× reaction buffer (100 mM TRIS pH 8.0) and Mix 2—containing 2.31× concentrated substrate (Fructose-6-phosphate) and ATP in MilliQ water. 15 μL per well of Mix 1 is transferred to assay wells of 96-well white plate. Next, 2 μl of 15× concentrated test compound in DMSO is added to Mix 1 for 20 min pre-incubation, followed by addition of Mix 2 (13 μl/well). Total reaction volume is 30 μL per well. Samples are tested in duplicates. Final concentration of DMSO in the reaction is 6.7%. Conditions needed for performing PFKFB3 (PFKFB3 BATCH II SEC) in vitro kinase assay are given below:
This protocol is based on Technical Bulletin, ADP-Glo™ Kinase Assay (Promega) and is adapted to 96-well plate containing 30 μL reaction mixture:
30 μL of 5× diluted ADP-Glo™ Reagent is added to each well of 96-well plate containing 30 μL of reaction mixture. The plate is incubated for 90 minutes on a shaker at rt. 60 μL of 5× diluted Kinase Detection Solution is added to each well of 96-well plate containing 60 μL of the solution (ratio of kinase reaction volume to ADP-Glo™ Reagent volume to Kinase Detection Solution volume is maintained at 1:1:2). Plate is incubated for 40 minutes on a shaker at rt, protected from light. Luminescence is measured in the plate reader Synergy 2 (BioTek).
Luminescent readouts for compounds tested in 10 concentrations (routinely from 100 μM to […], […] serial dilutions) in duplicates, as well as for positive control, are first normalized to no-substrate negative control by its subtraction. In the next step, % of normalized positive control is calculated for each data point and plotted against test compound concentration:
% of control—percent of positive control normalized to no-substrate negative control Lumcpd—luminescence of test compound Lumneg—luminescence of no-substrate negative control Lumpos—luminescence of positive control
IC50 parameter is determined by the GraphPad Prism 5.0 software [log(inhibitor) vs. response—Variable slope (four parameters)].

T1 sequence (Q16875 whole entry): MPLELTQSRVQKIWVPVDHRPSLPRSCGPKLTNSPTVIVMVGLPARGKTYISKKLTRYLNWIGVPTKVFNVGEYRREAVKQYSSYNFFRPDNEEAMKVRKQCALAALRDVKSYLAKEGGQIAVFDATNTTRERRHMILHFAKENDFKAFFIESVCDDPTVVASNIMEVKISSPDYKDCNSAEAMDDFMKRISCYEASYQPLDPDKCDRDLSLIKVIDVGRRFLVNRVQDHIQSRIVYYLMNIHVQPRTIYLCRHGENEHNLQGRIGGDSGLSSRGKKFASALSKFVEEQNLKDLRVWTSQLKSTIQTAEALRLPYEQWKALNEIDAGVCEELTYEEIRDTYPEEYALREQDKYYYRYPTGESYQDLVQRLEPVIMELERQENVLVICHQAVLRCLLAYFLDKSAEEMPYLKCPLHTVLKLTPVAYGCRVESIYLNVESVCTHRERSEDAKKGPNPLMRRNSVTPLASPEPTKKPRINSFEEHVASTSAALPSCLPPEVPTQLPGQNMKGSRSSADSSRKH

SMILES | microsomal CLint [1] [µL/min/mg] | microsomal CLint [2] [µL/min/mg] | solubility kinetic at 120 min (Kinetic solubility) [µM] | IC50 [3] [nM]
COc1ccc([C@@H](Nc2cc(-c3ccc4ccn(C)c4c3)c3nccnc3c2)c2cnnn2C)cn1 [Comparative Example 3, N—[(R)-(6-methoxypyridin-3-yl)(1-methyl-1H-1,2,3-triazol-5-yl)methyl]-8-(1-methyl-1H-indol-6-yl)quinoxalin-6-amine, reference compound] | 287 | 267 | 22 (≈ 10.5 µg/mL) | 530
Cn1ccc2ccc(-c3cc(NC(c4cccnc4)c4ccc(=O)[nH]n4)cc4nccnc34)cc21 (centres unmarked) [Example 1, 6-{[8-(1-Methyl-1H-indol-6-yl)-quinoxalin-6-ylamino]-pyridin-3-yl-methyl}-2H-pyridazin-3-one] | 122 | 78 | 69 (≈ 31.7 µg/mL) | 32
